Source: PMC6492180, “Cytome micronucleus assays with a metabolically competent human derived liver cell line (Huh6): A promising approach for routine testing of chemicals?” (Environmental and Molecular Mutagenesis, 2018)
Like-named read-outs stand apart in the source and are kept apart here. Marks after values point to notes of the source that are not given here.

Experiments:
[1] = ref IARC (2018); cited from earlier work
[2] = system: Human lymphocytes; conditions: Human lymphocytes, + S9; ref Katic et al., 2010; cited from earlier work
[3] = system: Hep3B; conditions: Hep3B; ref Majer et al., 2004; cited from earlier work
[4] = system: Huh6 cells
Method: All experiments were performed in duplicate.
3.8–4.0 × 10^5 cells per well were seeded into 6‐well plates with 3 mL of RPMI (4% FBS) for 12 hr, then dilutions of stock solutions of the diagnostic mutagens were added for different time periods (4, 24, and 48 hr). In each experimental series solvent controls were included. Subsequently, the cells were washed twice with 3.0 mL medium. […] Finally, the cells were washed and trypsinised. Afterwards the cells were washed twice with 8.0 mL RPMI and collected on slides by cytocentrifugation (600 rpm, 5 min). The slides were air dried, fixed, and stained with DiffQuick according to the instructions of the manufacturer. For each experimental point, two cultures were tested per dose. From each culture ≥1,000 BN cells were evaluated under 400‐fold magnification (Nikon Photophot‐FXA, Tokyo, Japan). At least 2,000 binucleated cells were analyzed per dose for the determination of the different nuclear anomalies (MN, NBuds, and NBs).
The experiments were performed as described in the previous chapter. The cells were exposed only to one dose of the different mutagens and were cultivated after the seeding in 6‐well plates which contained 4% or 10% FBS in RPMI, respectively.
Data were evaluated by generalized linear model with Poisson counts. Chi‐square tests for overdispersion were applied. […] P values ≤0.05 were considered statistically significant.
^150-60 000 cells were seeded in 6 well plates with 3 ml RPMI (4% FBS), subsequently different solutions of the test compound (dissolved in medium) were added. After treatment for different time periods, the cells was washed and processed as described in the Material and Method section. […] From each culture 1000 binoculated cells were evaluated. BN-MN – number of micronucleated cells; MN - total number of micronuclei; CBPI – cytokinesis-block proliferation index
^1The experiments were conducted essentially as described in the footnote of Table S1A-I. *p≤0.05

[5] = system: HepG2; conditions: HepG2, cited from earlier work
[6] = 10% FBS, 24 hr treatment, 100 µM

SMILES: CN(C)N=O [NDMA, N‐nitrosodimethylamine]
- IARC classification [1]: Methylation of the DNA; activation: CYP2E1; IARC: Group 2A
- Lowest effective concentration (LOEC) in micronucleus experiments [2]: Negative
- NOEC (highest no observable effect concentration tested) [2]: 67500 µM
- Lowest effective concentration (LOEC) in micronucleus experiments [3]: Negative
- NOEC (highest no observable effect concentration tested) [3]: 180000 µM
- MN effects after 24 hr (or longer) compared with 4 hr treatment (in words) ([4]; 4% FBS): more pronounced effects
- BN-MN (number of micronucleated cells) ([4]; 4% FBS, 4hrs, 50 mM): 21.0 ± 1.4 ‰
- Bridges ([4]; 4% FBS, 4hrs, 50 mM): 0.5 ± 0.7 ‰
- Buds ([4]; 4% FBS, 4hrs, 50 mM): 16.5 ± 2.1 ‰
- CBPI ([4]; 4% FBS, 4hrs, 50 mM): 1.7 ± 0.1
- MN (total number of micronuclei) ([4]; 4% FBS, 4hrs, 50 mM): 21.5 ± 0.7 ‰
- BN-MN (number of micronucleated cells) ([4]; 4% FBS, 4hrs, 100 mM): 24.0 ± 2.8 ‰
- Bridges ([4]; 4% FBS, 4hrs, 100 mM): 0.5 ± 0.7 ‰
- Buds ([4]; 4% FBS, 4hrs, 100 mM): 20.0 ± 1.4 ‰
- CBPI ([4]; 4% FBS, 4hrs, 100 mM): 1.7 ± 0.0
- MN (total number of micronuclei) ([4]; 4% FBS, 4hrs, 100 mM): 26.5 ± 0.7 ‰
- BN-MN (number of micronucleated cells) ([4]; 4% FBS, 4hrs, 200 mM): 26.5 ± 2.1* ‰
- Bridges ([4]; 4% FBS, 4hrs, 200 mM): 0.5 ± 0.7 ‰
- Buds ([4]; 4% FBS, 4hrs, 200 mM): 25.5 ± 5.0* ‰
- CBPI ([4]; 4% FBS, 4hrs, 200 mM): 1.5 ± 0.0
- MN (total number of micronuclei) ([4]; 4% FBS, 4hrs, 200 mM): 27.5 ± 0.7* ‰
- BN-MN (number of micronucleated cells) ([4]; 4% FBS, 24hrs, 25 mM): 20.5 ± 0.7 ‰
- Bridges ([4]; 4% FBS, 24hrs, 25 mM): 0.0 ± 0.0 ‰
- Buds ([4]; 4% FBS, 24hrs, 25 mM): 7.0 ± 1.4 ‰
- CBPI ([4]; 4% FBS, 24hrs, 25 mM): 1.8 ± 0.1
- MN (total number of micronuclei) ([4]; 4% FBS, 24hrs, 25 mM): 20.5 ± 0.7 ‰
- BN-MN (number of micronucleated cells) ([4]; 4% FBS, 24hrs, 50 mM): 21.5 ± 5.0 ‰
- Bridges ([4]; 4% FBS, 24hrs, 50 mM): 0.5 ± 0.7 ‰
- Buds ([4]; 4% FBS, 24hrs, 50 mM): 9.5 ± 2.1* ‰
- CBPI ([4]; 4% FBS, 24hrs, 50 mM): 1.8 ± 0.1
- MN (total number of micronuclei) ([4]; 4% FBS, 24hrs, 50 mM): 22.5 ± 3.5 ‰
- BN-MN (number of micronucleated cells) ([4]; 4% FBS, 24hrs, 100 mM): 30.0 ± 2.8* ‰
- Bridges ([4]; 4% FBS, 24hrs, 100 mM): 3.5 ± 0.7 ‰
- Buds ([4]; 4% FBS, 24hrs, 100 mM): 13.0 ± 4.2* ‰
- CBPI ([4]; 4% FBS, 24hrs, 100 mM): 1.7 ± 0.0
- MN (total number of micronuclei) ([4]; 4% FBS, 24hrs, 100 mM): 32.0 ± 2.8* ‰
- BN-MN (number of micronucleated cells) ([4]; 4% FBS, 48hrs, 25 mM): 20.5 ± 0.7 ‰
- Bridges ([4]; 4% FBS, 48hrs, 25 mM): 0.5 ± 0.7 ‰
- Buds ([4]; 4% FBS, 48hrs, 25 mM): 23.0 ± 2.8 ‰
- CBPI ([4]; 4% FBS, 48hrs, 25 mM): 1.8 ± 0.0
- MN (total number of micronuclei) ([4]; 4% FBS, 48hrs, 25 mM): 21.5 ± 2.1 ‰
- BN-MN (number of micronucleated cells) ([4]; 4% FBS, 48hrs, 50 mM): 22.0 ± 4.2 ‰
- Bridges ([4]; 4% FBS, 48hrs, 50 mM): 1.0 ± 1.4 ‰
- Buds ([4]; 4% FBS, 48hrs, 50 mM): 27.0 ± 4.2 ‰
- CBPI ([4]; 4% FBS, 48hrs, 50 mM): 1.8 ± 0.0
- MN (total number of micronuclei) ([4]; 4% FBS, 48hrs, 50 mM): 23.5 ± 5.0 ‰
- BN-MN (number of micronucleated cells) ([4]; 4% FBS, 48hrs, 100 mM): 40.5 ± 2.1* ‰
- Bridges ([4]; 4% FBS, 48hrs, 100 mM): 3.0 ± 1.4 ‰
- Buds ([4]; 4% FBS, 48hrs, 100 mM): 35.5 ± 3.5* ‰
- CBPI ([4]; 4% FBS, 48hrs, 100 mM): 1.7 ± 0.1
- MN (total number of micronuclei) ([4]; 4% FBS, 48hrs, 100 mM): 53.0 ± 4.2* ‰
- BN-MN (number of micronucleated cells) [4, 6]: 33.0 ± 2.8*
- Bridges [4, 6]: 3.5 ± 0.7
- Buds [4, 6]: 28.0 ± 2.8
- CBPI [4, 6]: 1.9 ± 0.0
- MN (total number of micronuclei) [4, 6]: 34.5 ± 5.0*
- Lowest effective concentration (LOEC) in micronucleus experiments ([4]; Huh6): 100000 µM
- Lowest effective concentration (LOEC) in micronucleus experiments ([5]; ref Majer et al., 2004): 30000 µM
- MN induction after 28 hr compared with 1 hr exposure (in words) ([5]; ref Natarajan and Darroudi (1991)): stronger effects
- Lowest effective concentration (LOEC) in micronucleus experiments ([5]; ref Valentin‐Severin et al., 2003): 10000 µM
